Source: patent US11129830B2, “PAC-1 combination therapy” (The Board of Trustees of the University of Illinois, priority 2015, dated 2021)
Like-named read-outs stand apart in the source and are kept apart here.

Assays:
[1] = test system: panel of nine cell lines of diverse origins and BRAF mutational status; assay: Cellular proliferation (SRB) assay, 5-day IC50, panel of nine cell lines; type: cell-based; conditions: 120 h, read-out: IC50 values (5 day)
Protocol: (§1) 1000-2000 cells were seeded per well in a 96-well plate and allowed to adhere before DMSO solutions of PAC-1 or vemurafenib were added to each well. Proliferation was assessed by the sulforhodamine B (SRB) assay.

A375 cells = assay: Cellular proliferation (SRB) assay in A375; type: cell-based, human; conditions: for Emax: A-375, 120 h
Protocol: as §1

A375VR cells [2] = assay: Cellular proliferation (SRB) assay in vemurafenib-resistant A375VR; type: cell-based, human; conditions: for IC50: 120 h, 5-day
Protocol: To assess if PAC-1 remains active in a cell line that has acquired resistance to vemurafenib, a vemurafenib-resistant A375VR cell line was generated by growing A375 parental cell line in sequentially higher concentrations of vemurafenib (0.5 μM to 1.0 μM) for 2 months. To determine the mechanism of resistance of A375VR, genes for MEK1/2, NRAS and AKT were sequenced, but no commonly reported mutations that would confer resistance were found (Rizos et al., Clinical Cancer Research 2014; 20:1965-77). Similarly, splice variant of the ^V600EBRAF mRNA was also not observed. Through qPCR, A375VR cells have approximately 3-fold higher levels of MDR1 mRNA compared to A375.
as §1

[3] = test system: PARP-1 cleavage in A375 cells; assay: PARP-1 cleavage Western blot in A375; type: cell-based, human; conditions: PAC-1 or PAC-1a 12 μM, vemurafenib 10 μM; up to 24 h
Protocol: (§2) Cells and tumor tissues were lysed using RIPA buffer containing phosphatase and protease inhibitor cocktail (Calbiochem). The protein concentration of each sample was determined by the BCA assay (Pierce). Cell lysates containing 20 μg of protein was loaded into each lane of 4-20% gradient gels (BioRad) for SDS-PAGE. Proteins were transferred onto PDVF membrane for Western blot analysis.

[4] = test system: PARP-1 cleavage in SK-MEL-5 cells; assay: PARP-1 cleavage Western blot in SK-MEL-5; type: cell-based, human; conditions: PAC-1 12 μM, vemurafenib 10 μM
Protocol: as §2

[5] = test system: PARP-1 cleavage in UACC-62 cells; assay: PARP-1 cleavage Western blot in UACC-62; type: cell-based, human; conditions: PAC-1 12 μM, vemurafenib 10 μM
Protocol: as §2

A375 and SK-MEL-5 cells = assay: Long-term (up to 30 days) continuous treatment, cell regrowth; type: cell-based, human; conditions: PAC-1 4 μM or vemurafenib 10 μM
Protocol: We therefore hypothesized that long term treatment with vemurafenib would lead to re-growth of cancer cells, while treatment with PAC-1 should prevent re-growth. To investigate this hypothesis, A375 and SK-MEL-5 cells were plated at low densities and treated continuously with PAC-1 (4 μM) or vemurafenib (10 μM) for up to 30 days. […] However, in wells treated with PAC-1, no regrowth was observed even after 30 days (FIG. 5B). Thus, consistent with the higher Emax value, PAC-1 is able to quantitatively kill cells thereby preventing regrowth.

A375 or UACC-62 cells = assay: In vitro resistance assay (SRB, 5, 10 and 20 days); type: cell-based, human; conditions: for cell number compared to the control, after 5 days: vemurafenib 5 μM or 10 μM; for cell death on day 10: A375, alone or with 1 μM PAC-1
Protocol: The next day, vemurafenib (5 or 10 μM) or PAC-1 (1 μM) were treated in six technical replicates for 5, 10 and 20 days. Fresh media and compounds were added every 2-3 days for the duration of the study. At the end of 5, 10 or 20 days, the wells were fixed with 10% cold trichloroacetic acid for 1 h at 4° C. The wells were then washed, allowed to dry and stained with 0.5% SRB dye for 30 min at room temperature. The wells were then washed with 0.1% acetic acid and allowed to dry. At this point, images of the plates were taken with GelDoc XR (BioRad). Finally, 200 μL of 10 mM Tris base (pH >10.4) was added into well and the absorbance at 510 nm were read using SpectraMax Plus (Molecular Devices). The absorbance at 510 nm is plotted against the days post treatment as an indication of cell proliferation over the time course of the experiment.

[6] = test system: caspase-3/-7 activity in A375 cells; conditions: PAC-1 12 μM, vemurafenib 10 μM; combination increase as early as 7 h post-treatment
Protocol: (§3) 5,000-8,000 cells were plated in 96 well plates and allowed to adhere. […] Plates were then assessed for caspase-3/7 activity via addition of bifunctional lysis and activity buffer (200 mM HEPES, 400 mM NaCl, 40 mM DTT, 0.4 mM EDTA, 1% Triton-X, pH 7.4) with 20 μM of Ac-DEVD-AFC (SEQ ID NO: 20) (Cayman Chemicals) as the fluorogenic substrate (λex=400 nm, λem=505 nm). Plates were pre-incubated at 37° C. at 30 min in the Synergy multi-mode reader (BioTek) then read for 30 min at 3 min intervals. The slopes for each well were calculated. Activity is expresses as normalized to minimal and maximal activity observed within the assay.

[7] = test system: caspase-3/-7 activity in SK-MEL-5 cells; conditions: PAC-1 12 μM, vemurafenib 10 μM
Protocol: as §3

[8] = test system: caspase-3/-7 activity in UACC-62 cells; conditions: PAC-1 12 μM, vemurafenib 10 μM
Protocol: as §3

[9] = test system: caspase-3/-7 activity in A375 and UACC-62 cells; conditions: 24 h; PAC-1 12 μM, vemurafenib 10 μM, trametinib 100 nM
Protocol: (A) Shown is percent apoptotic cell death after 24 h of treatment. […] Activity is expressed as normalized to the positive control. Dashed horizontal lines represent the level of cell death expected from a mere additive effect of the two agents. Values are reported as mean±SEM of at least three experiments.
5,000-8,000 cells were plated in 96 well plates and allowed to adhere. Cells were treated with 1 μM of staurosporine for 24 h or with 13 μM of raptinal (Palchaudhuri et al., Cell Rep 2015; 13:2027-36) for 3 h as positive control, DMSO as negative control and indicated concentrations of PAC-1 and vemurafenib for 0, 2, 4, 7, 10, 12, 16, 20 or 24 h. Plates were then assessed for caspase-3/7 activity via addition of bifunctional lysis and activity buffer (200 mM HEPES, 400 mM NaCl, 40 mM DTT, 0.4 mM EDTA, 1% Triton-X, pH 7.4) with 20 μM of Ac-DEVD-AFC (SEQ ID NO: 20) (Cayman Chemicals) as the fluorogenic substrate (λex=400 nm, λem=505 nm). Plates were pre-incubated at 37° C. at 30 min in the Synergy multi-mode reader (BioTek) then read for 30 min at 3 min intervals. The slopes for each well were calculated. Activity is expresses as normalized to minimal and maximal activity observed within the assay.

A375VR xenograft tumors = conditions: nude mice, 15 days; vemurafenib 10 mg/kg, PAC-1 100 mg/kg
Protocol: All animal studies were performed in accordance with UIUC IACUC guidelines (protocol no. 14292). 0.1 mL of A375 or A375VR in 1:1 DMEM:matrigel (Corning) was injected into the right flank of 6-7 (A375) or 5 (A375VR) week old female athymic nude mice (Charles River). In the both models, the mice were randomized into four groups: control, 100 mg/kg PAC-1, 10 mg/kg vemurafenib, and the combination of 100 mg/kg PAC-1 and 10 mg/kg vemurafenib (n=8). Initial tumor volume measurements were taken and dosing was initiated for a period of 15 days. Vemurafenib was formulated as 5% DMSO in 1% methyl cellulose and given twice daily by oral gavage (p.o.). PAC-1 was formulated in 200 mg/mL hydroxypropyl-β-cyclodextrin at pH 5.5 and given by intraperitoneal (i.p.) injection. Tumor length and width measurements were taken three times a week and volume was calculated as 0.52*L*W^2. At the end of the study, the mice were euthanized and tumors were excised. The tumors were weighed and used for Western blot and immunohistochemistry.

A375 xenograft tumors = assay: A375 subcutaneous mouse xenograft model of melanoma
Protocol: In this model, nude mice were inoculated subcutaneously with A375 cells, and after allowing the tumors to grow, mice were randomized based upon tumor volume into four groups [F=0.03<Fcritical(3.01)] and dosed with PAC-1, vemurafenib, or the combination for 15 days.
0.1 mL of A375 or A375VR in 1:1 DMEM:matrigel (Corning) was injected into the right flank of 6-7 (A375) or 5 (A375VR) week old female athymic nude mice (Charles River). In the both models, the mice were randomized into four groups: control, 100 mg/kg PAC-1, 10 mg/kg vemurafenib, and the combination of 100 mg/kg PAC-1 and 10 mg/kg vemurafenib (n=8). Initial tumor volume measurements were taken and dosing was initiated for a period of 15 days. Vemurafenib was formulated as 5% DMSO in 1% methyl cellulose and given twice daily by oral gavage (p.o.). PAC-1 was formulated in 200 mg/mL hydroxypropyl-β-cyclodextrin at pH 5.5 and given by intraperitoneal (i.p.) injection. Tumor length and width measurements were taken three times a week and volume was calculated as 0.52*L*W^2. At the end of the study, the mice were euthanized and tumors were excised. The tumors were weighed and used for Western blot and immunohistochemistry.

A375VR cells [10] = assay: Annexin V/PI apoptosis in A375VR; type: cell-based, human; conditions: 24 h; in combination with low concentrations of vemurafenib
Protocol: FIGS. 13A-C. Effect of the PAC-1 and vemurafenib combination in A375VR cells. (A) Shown is percent apoptotic cell death (assessed by Annexin V/PI staining and flow cytometry) induced after 24 h of treatment. (B) The apoptotic cell death observed in (A) is greater than that predicted by the Bliss independent model. The excess cell death is calculated as [f(observed, apoptotic)−(f(PAC-1, apoptotic)+f(vemurafenib, apoptotic)−f(PAC-1, apoptotic)*f(vemurafenib, apoptotic))]*100%. […] (C) The synergistic effect of PAC-1 and vemurafenib in activating apoptosis in A375VR after 24 h.

[11] = test system: ERK1/2 phosphorylation in A375 cells; assay: ERK1/2 phosphorylation Western blot in A375; type: cell-based, human
Protocol: as §2

[12] = test system: ERK1/2 phosphorylation in SK-MEL-5 cells; assay: ERK1/2 phosphorylation Western blot in SK-MEL-5; type: cell-based, human; conditions: 24 h; vemurafenib 0.5 μM and 1 μM
Protocol: as §2

[13] = test system: ERK1/2 phosphorylation in UACC-62 cells; assay: ERK1/2 phosphorylation Western blot in UACC-62; type: cell-based, human; conditions: 24 h; vemurafenib 0.5 μM and 1 μM
Protocol: as §2

[14] = test system: ERK1/2 phosphorylation in WTBRAF cell lines; assay: ERK1/2 phosphorylation Western blot in WTBRAF cell lines; type: cell-based; conditions: 24 h; even at high concentrations (30 μM)
Protocol: as §2

[15] = test system: ERK1/2 phosphorylation in A375VR cells; assay: ERK1/2 phosphorylation Western blot in A375VR; type: cell-based, human; conditions: 2 h; vemurafenib 0.5 or 1 μM
Protocol: as §2

[16] = test system: melanoma patients with the V600E BRAF protein; conditions: literature; cited from earlier work

C=CCc1cccc(/C=N/NC(=O)CN2CCN(Cc3ccccc3)CC2)c1O [PAC-1, 2-(4-benzylpiperazin-1-yl)-N-[(2-hydroxy-3-prop-2-enyl-phenyl)methylideneamino]acetamide]
IC50 [1]: 1 to 4 µM | Emax (percent cell death induced by high concentrations of compound) (A375 cells; A375 cells, after 5 days): ~100% | Emax (A375 cells; Homo sapiens, read-out: Emax (percent cell death induced by high concentrations of compound), A375 cells, after 5 days): 99.4 ± 0.7% | IC50 (A375 cells; Homo sapiens, A-375, read-out: IC50 value): 1.2 µM | IC50 (A375VR cells [2]; Homo sapiens, A375VR): 2.4 µM | PARP-1 cleavage [3]: little effect | PARP-1 cleavage [4]: little effect | PARP-1 cleavage [5]: little effect | time of continuous treatment to regrowth of cells (A375 and SK-MEL-5 cells): > 30 days | cell number compared to the control, after 5 days (A375 or UACC-62 cells; A375 and UACC-62, PAC-1 1 μM): significant reduction in cell number | difference from the control on day 10 (A375 or UACC-62 cells; PAC-1 1 μM): no observable difference | caspase-3 activity [6]: negligible increases | caspase-3/-7 enzymatic activity [7]: little effect | caspase-3/-7 enzymatic activity [8]: little effect | caspase-3/-7 activity [9]: little effect | antitumor effect (tumor volume compared to untreated control) (A375VR xenograft tumors): does not exert any antitumor affect | reduction in tumor mass and volume compared to untreated control (A375 xenograft tumors; PAC-1 100 mg/kg once daily i.p., 15 days): minimal reduction

O=C(CN1CCN(Cc2ccccc2)CC1)N/N=C/c1ccccc1 [PAC-1a]
proportion of cells undergoing apoptosis (A375VR cells [10]): abolished

CCCS(=O)(=O)Nc1ccc(F)c(C(=O)c2c[nH]c3ncc(-c4ccc(Cl)cc4)cc23)c1F [vemurafenib]
IC50 [1]: 0.2 to 0.55 µM | Emax (percent cell death induced by high concentrations of compound) (A375 cells; A375 cells, after 5 days): ~97% | Emax (A375 cells; Homo sapiens, A375 cells, after 5 days, read-out: Emax (percent cell death induced by high concentrations of compound)): 96.8 ± 0.3% | A375 cells insensitive to compound (A375 cells; after 5 days, from Emax): ~3% | loss of potency compared to parental A375 (A375VR cells [2]; 5-day IC50, A375VR vs A375): 12 fold | Emax lower than the parental A375 cell line (A375VR cells [2]; A375VR vs A375): 14% | IC50 (A375VR cells [2]; Homo sapiens, A375VR): 1.5 µM | Emax (A375VR cells [2]; Homo sapiens, A375VR): 79 ± 6.3% | PARP-1 cleavage [3]: little effect | PARP-1 cleavage [4]: little effect | PARP-1 cleavage [5]: little effect | inhibition of ERK1/2 phosphorylation ([11]; 2 h, vemurafenib 0.5 or 1 μM, parental A375): complete inhibition | phospho-ERK1/2 bands ([11]; 24 h, vemurafenib 0.5 and 1.0 μM): not observed | phosphorylation of ERK1/2 [12]: inhibited the phosphorylation of ERK1/2 | phosphorylation of ERK1/2 [13]: inhibited the phosphorylation of ERK1/2 | inhibition of ERK1/2 phosphorylation [14]: not observed | complete inhibition of ERK1/2 phosphorylation [15]: not observed | time of continuous treatment to regrowth of cells (A375 and SK-MEL-5 cells): ≥ 20 days | cell death on day 10 (A375 or UACC-62 cells; vemurafenib 5 μM): 89.4±1.4% | cell death on day 10 (A375 or UACC-62 cells; vemurafenib 10 μM): 93.2±1.1% | cell number compared to the control, after 5 days (A375 or UACC-62 cells; A375 and UACC-62, PAC-1 1 μM): significant reduction in cell number | regrowth of colonies after 20 days of treatment (A375 or UACC-62 cells; A375 and UACC-62, vemurafenib 5 or 10 μM, PAC-1 1 μM): significant regrowth of colonies | caspase-3 activity [6]: negligible increases | caspase-3/-7 enzymatic activity [7]: little effect | caspase-3/-7 enzymatic activity [8]: little effect | caspase-3/-7 activity [9]: little effect | antitumor effect (tumor volume compared to untreated control) (A375VR xenograft tumors): does not exert any antitumor affect | extension of progression-free survival [16]: 5.3 months | reduction in tumor volume compared to control (A375 xenograft tumors; nude mice, dosed 15 days, PAC-1 100 mg/kg once daily i.p., vemurafenib 10 mg/kg twice daily p.o.): 53% | mice having comparable tumor mass as the control mice (A375 xenograft tumors; vemurafenib 10 mg/kg twice daily p.o., 15 days): 3 out of 8
